Experimental data reported in the supplement of paper PMC8671470.

How the values were obtained:
Conditions in all cases: 72 h
[1] = tested on: HL-60; assay: cell viability (% survival relative to DMSO control); higher = less cytotoxic
Procedure, shortened: (§1)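 A rescreen of the full library used HL-60 cells in RPMI 1640 with 10% FBS on 384-well plates, run in duplicate at five tenfold concentrations (1–10,000 nM). Each screen included DMSO or 100 nM of one of three metabolic inhibitors and ran 72 h at 37 °C, 5% CO2. CellTiter-Glo viability was scaled between DMSO and 10 μM proteasome-inhibitor wells. Any area under the curve comes from four-parameter log-logistic fits with drc and PharmacoGx.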

[2] = tested on: myeloid leukemia patient primary cells Pat.10; assay: cell viability (% survival relative to DMSO control); higher = less cytotoxic
Procedure, shortened: (§2)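 Seventy compounds were pre-printed on 384-well plates at five tenfold concentrations between 1 and 10,000 nM, in duplicate. Thawed mononuclear cells purified by Ficoll from AML or CML patients were added at 10,000 cells/well in RPMI 1640 with 10% FBS for 72 h. Viability by CellTiter-Glo was normalised to DMSO and 10 μM proteasome-inhibitor wells. Where stated, area under the curve was taken from log-logistic fits made with the drc and PharmacoGx R packages, each fit having four parameters.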

[3] = tested on: myeloid leukemia patient primary cells Pat.11; assay: as above
Procedure, shortened: as §2

[4] = tested on: myeloid leukemia patient primary cells Pat.12; assay: as above
Procedure, shortened: as §2

[5] = tested on: myeloid leukemia patient primary cells Pat.13; assay: as above
Procedure, shortened: as §2

[6] = tested on: myeloid leukemia patient primary cells Pat.14; assay: as above
Procedure, shortened: as §2

[7] = tested on: myeloid leukemia patient primary cells Pat.15; assay: as above
Procedure, shortened: as §2

[8] = tested on: myeloid leukemia patient primary cells Pat.1; assay: as above
Procedure, shortened: as §2

[9] = tested on: myeloid leukemia patient primary cells Pat.2; assay: as above
Procedure, shortened: as §2

[10] = tested on: myeloid leukemia patient primary cells Pat.3; assay: as above
Procedure, shortened: as §2

[11] = tested on: myeloid leukemia patient primary cells Pat.4; assay: as above
Procedure, shortened: as §2

[12] = tested on: myeloid leukemia patient primary cells Pat.5; assay: as above
Procedure, shortened: as §2

[13] = tested on: myeloid leukemia patient primary cells Pat.6; assay: as above
Procedure, shortened: as §2

[14] = tested on: myeloid leukemia patient primary cells Pat.7; assay: as above
Procedure, shortened: as §2

[15] = tested on: myeloid leukemia patient primary cells Pat.8; assay: as above
Procedure, shortened: as §2

[16] = tested on: myeloid leukemia patient primary cells Pat.9; assay: as above
Procedure, shortened: as §2

[17] = tested on: HL-60; assay: area under dose-response curve (viability, 1 nM-10 uM) (fraction (0-1)); higher = more sensitive
Procedure, shortened: as §1

O=C1C(SCCO)=C(SCCO)C(=O)c2ccccc21
cell viability [%], [1]
Conditions | 0.001 µM | 0.01 µM | 0.1 µM | 1 µM | 10 µM
co-treatment: AZD3965 100 nM | 102 | 105 | 104 | 95.3 | -0.491
co-treatment: DMSO vehicle | 101 | 104.7 | 99.1 | 102 | 7.09
co-treatment: GSK2194069 100 nM | 99.5 | 98.79 | 97.3 | 102 | 1.87
co-treatment: pictilisib 100 nM | 107.4 | 104 | 95.6 | 75.46 | -0.39

Conditions | area under dose-response curve, co-treatment: AZD3965 100 nM | area under dose-response curve, co-treatment: DMSO vehicle | area under dose-response curve, co-treatment: GSK2194069 100 nM | area under dose-response curve, co-treatment: pictilisib 100 nM | cell viability, 1 nM [%] | cell viability, 10 nM [%] | cell viability, 100 nM [%] | cell viability, 1000 nM [%] | cell viability, 10000 nM [%]
[2] | – | – | – | – | 29.3 | > 100 | 60.9 | 35 | > 100
[3] | – | – | – | – | 96.1 | 91.4 | 99.8 | 7.63 | 0.114
[4] | – | – | – | – | 94.2 | 99.6 | 92 | 2.07 | < 0
[5] | – | – | – | – | 61.2 | 90.8 | 96.4 | 76.4 | < 0
[6] | – | – | – | – | 41.2 | 91.4 | 61.7 | 5.04 | 4.94
[7] | – | – | – | – | 82.6 | 89.3 | 63.2 | 2.59 | 0.4
[8] | – | – | – | – | 81.5 | 92.4 | 88.1 | < 0 | < 0
[9] | – | – | – | – | 93.1 | > 100 | 97.1 | 55.8 | 0.14
[10] | – | – | – | – | 21.4 | 97.2 | 95.5 | 9.9 | < 0
[11] | – | – | – | – | 76.4 | 89.5 | > 100 | 3.28 | 2.39
[12] | – | – | – | – | 2.39 | 98.5 | 57.2 | 2.01 | 2.39
[13] | – | – | – | – | 77.1 | > 100 | 99.3 | 71.1 | < 0
[14] | – | – | – | – | 37.3 | 96.4 | 57.1 | < 0 | < 0
[15] | – | – | – | – | 74.2 | 70 | 95.1 | 65.4 | 0.0301
[16] | – | – | – | – | 1.27 | 95.1 | 28.7 | < 0 | < 0
[17] | 0.139 | 0.114 | 0.125 | 0.192 | – | – | – | – | –

Cc1[nH]nc(C(F)(F)F)c1Cc1sc2c(c1C(=O)N1C[C@](C)(O)CO1)c(=O)n(C)c(=O)n2C(C)C [AZD3965]
cell viability [%], [1]
Conditions | 0.001 µM | 0.01 µM | 0.1 µM | 1 µM | 10 µM
co-treatment: AZD3965 100 nM | 92.7 | 98.1 | 96 | 92.2 | 102
co-treatment: DMSO vehicle | 102 | 95.8 | 97.9 | 94.6 | 99.6
co-treatment: GSK2194069 100 nM | 98 | 95.7 | 108 | 97.5 | 105
co-treatment: pictilisib 100 nM | 89.3 | 97.7 | 109 | 97.9 | 112

Conditions | area under dose-response curve, co-treatment: AZD3965 100 nM | area under dose-response curve, co-treatment: DMSO vehicle | area under dose-response curve, co-treatment: GSK2194069 100 nM | area under dose-response curve, co-treatment: pictilisib 100 nM | cell viability, 1 nM [%] | cell viability, 10 nM [%] | cell viability, 100 nM [%] | cell viability, 1000 nM [%] | cell viability, 10000 nM [%]
[2] | – | – | – | – | 98.2 | 33.4 | 85 | 46.5 | 48.7
[3] | – | – | – | – | 93.7 | 91.6 | > 100 | > 100 | 88.6
[4] | – | – | – | – | 93.3 | 94 | > 100 | 99.9 | 98.2
[5] | – | – | – | – | 85.6 | 69.2 | 93.7 | 97.4 | 81.1
[6] | – | – | – | – | 84.2 | 39.1 | > 100 | 89.9 | 98.9
[7] | – | – | – | – | 84 | 98.8 | 92.7 | 96.7 | 93.6
[8] | – | – | – | – | 93.1 | 89.5 | 97.5 | 95.2 | 93
[9] | – | – | – | – | 97 | 87.2 | 99 | 96.3 | 98
[10] | – | – | – | – | 86.2 | 76.4 | > 100 | 92.3 | 94.2
[11] | – | – | – | – | 87.3 | 98.5 | 98.1 | > 100 | > 100
[12] | – | – | – | – | 82.2 | 5.69 | 65 | 55.7 | 44.5
[13] | – | – | – | – | 90.7 | 83.2 | 97.7 | 94.9 | 96.1
[14] | – | – | – | – | 64 | 45.1 | 93.6 | 99.9 | 98.5
[15] | – | – | – | – | 86.7 | 74.6 | 89.9 | 92.5 | 87.8
[16] | – | – | – | – | > 100 | 34.8 | > 100 | 74.3 | 86.9
[17] | < 0.0301 | < 0.0301 | < 0.0301 | < 0.0301 | – | – | – | – | –

CN(Cc1cnc2nc(N)nc(N)c2n1)c1ccc(C(=O)N[C@@H](CCC(=O)O)C(=O)O)cc1 [Methotrexate]
cell viability [%], [1]
Conditions | 0.001 µM | 0.01 µM | 0.1 µM | 1 µM | 10 µM
co-treatment: AZD3965 100 nM | 108 | 50.6 | 28 | 26.3 | 26.8
co-treatment: DMSO vehicle | 101.2 | 68.4 | 42.4 | 32.7 | 41.2
co-treatment: GSK2194069 100 nM | 110 | 72.4 | 39 | 27.9 | 29.7
co-treatment: pictilisib 100 nM | 104 | 69.8 | 32.358 | 27.3 | 28.1

Conditions | area under dose-response curve, co-treatment: AZD3965 100 nM | area under dose-response curve, co-treatment: DMSO vehicle | area under dose-response curve, co-treatment: GSK2194069 100 nM | area under dose-response curve, co-treatment: pictilisib 100 nM | cell viability, 1 nM [%] | cell viability, 10 nM [%] | cell viability, 100 nM [%] | cell viability, 1000 nM [%] | cell viability, 10000 nM [%]
[2] | – | – | – | – | 68.8 | 42.2 | 80.2 | 23 | 15.2
[3] | – | – | – | – | 96.2 | 98.4 | 97.3 | 81.7 | 95.5
[4] | – | – | – | – | > 100 | 98.1 | 97.4 | 87 | 97.3
[5] | – | – | – | – | 96.4 | 88.3 | 82.7 | 58.2 | 88.5
[6] | – | – | – | – | 89 | 94.6 | 87.8 | 22.5 | 35.6
[7] | – | – | – | – | 95.4 | 89.3 | > 100 | 80.5 | 91.1
[8] | – | – | – | – | 99.6 | > 100 | 87.7 | 72.5 | 92.6
[9] | – | – | – | – | 98.8 | 96.8 | 98.1 | 75.3 | 63.1
[10] | – | – | – | – | 46 | 95 | 40 | 10.9 | 5.65
[11] | – | – | – | – | 88 | 87.6 | 70.2 | 73.6 | 95.8
[12] | – | – | – | – | 98.7 | 50.1 | 57.6 | < 0 | 46.4
[13] | – | – | – | – | 99.7 | 95.8 | 97.1 | 67.7 | 92
[14] | – | – | – | – | 94.1 | 89.1 | 56.6 | 15.2 | 34.5
[15] | – | – | – | – | 76.5 | 89.1 | 96.3 | 70.3 | 86.1
[16] | – | – | – | – | 51.4 | 92.2 | 25.9 | 6.38 | 0.492
[17] | 0.618 | 0.523 | 0.515 | 0.544 | – | – | – | – | –
